The values below come from ChEMBL document CHEMBL1201862, “PubChem BioAssay data set” (2004).

Calls of active or inactive are those of the source.

As usually defined, the AC50 is the midpoint of the concentration-response curve, whichever way the signal moves. The EC50 is the concentration that produces a half-maximal response. Broadly, the IC50 is the midpoint of a concentration-inhibition curve.

One test relates to HeLa. Kind of test: Cytotoxicity counterscreen assay for transcriptional activators of heat shock protein 70 (Hsp70). [Related pubchem assays: 1203, 1252 ]. Type of test: functional. Particulars: Homo sapiens.
Test [1] addresses Heat shock protein HSP 90-alpha (Homo sapiens, UniProt P07900). In kind it is functional, organism-based.
A short description of test [2]: NIH-3T3 fibroblast cytotoxicity, dose response, cytotoxicity control, cell-based, fluorescence, Alamar Blue, secondary assay (AID 2327).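 Further: NIH-3T3 mouse fibroblasts cultured with fluconazole at 8 µg/mL.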 In kind it is functional. On the technique in general: The colour change of resazurin is a common sign of viable cells or microbes.
Test [3] has as its target T1, Heat shock factor protein 1 (Mus musculus, UniProt P38532).
T1 sequence (P38532 whole entry): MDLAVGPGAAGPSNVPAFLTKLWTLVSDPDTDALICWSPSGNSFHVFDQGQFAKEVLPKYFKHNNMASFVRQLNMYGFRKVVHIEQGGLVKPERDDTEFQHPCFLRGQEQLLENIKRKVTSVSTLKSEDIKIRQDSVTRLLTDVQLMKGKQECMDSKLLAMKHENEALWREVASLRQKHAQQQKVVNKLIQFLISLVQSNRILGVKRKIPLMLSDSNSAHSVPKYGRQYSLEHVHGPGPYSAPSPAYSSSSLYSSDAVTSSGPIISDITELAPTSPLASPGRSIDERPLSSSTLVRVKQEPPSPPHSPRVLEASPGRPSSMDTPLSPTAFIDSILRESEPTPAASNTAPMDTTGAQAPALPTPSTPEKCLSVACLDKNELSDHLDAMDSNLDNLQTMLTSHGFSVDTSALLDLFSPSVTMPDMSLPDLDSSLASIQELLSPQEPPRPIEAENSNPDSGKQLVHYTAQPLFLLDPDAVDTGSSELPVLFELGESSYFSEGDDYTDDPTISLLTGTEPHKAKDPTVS
Kind of test: inhibition of MG132-induced HSE-luciferase signal, confirmation, cell-based, NIH3T3, luminescence, dose retest (AID 2382).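 Further: NIH3T3 fibroblasts with HSF1-driven luciferase reporter stressed by proteasome inhibitor MG132; luminescence from HSF1-driven luciferase expression after 8 hours of MG132 stress.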 In kind it is functional.

A further test deals with INS1. Kind of test: beta cell apoptosis inhibitors, cytokine rescue, dose response, luminescence, retest (AID 449756).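 Further: cell death triggered by IL-1 beta plus TNF-alpha plus IFN-gamma mixture; protective hits raise ATP signal compared with cytokine alone wells.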 Type of test: functional, cell-based. Particulars: Rattus norvegicus.
Test [4] addresses Sphingosine 1-phosphate receptor 1 (Homo sapiens, UniProt P21453). Type of test: functional.
Test [5] deals with Sphingosine 1-phosphate receptor 4 (Homo sapiens, UniProt O95977). Kind of test: Fluorescence dose response cell-based high throughput screening assay for antagonists of the Sphingosine 1-Phosphate Receptor 4 (S1P4). [Related pubchem assays: 1524 (Confirmation in triplicates.), 1510 (Primary screen.)]. In kind it is functional.
Sequence of Sphingosine 1-phosphate receptor 4 (O95977 whole entry): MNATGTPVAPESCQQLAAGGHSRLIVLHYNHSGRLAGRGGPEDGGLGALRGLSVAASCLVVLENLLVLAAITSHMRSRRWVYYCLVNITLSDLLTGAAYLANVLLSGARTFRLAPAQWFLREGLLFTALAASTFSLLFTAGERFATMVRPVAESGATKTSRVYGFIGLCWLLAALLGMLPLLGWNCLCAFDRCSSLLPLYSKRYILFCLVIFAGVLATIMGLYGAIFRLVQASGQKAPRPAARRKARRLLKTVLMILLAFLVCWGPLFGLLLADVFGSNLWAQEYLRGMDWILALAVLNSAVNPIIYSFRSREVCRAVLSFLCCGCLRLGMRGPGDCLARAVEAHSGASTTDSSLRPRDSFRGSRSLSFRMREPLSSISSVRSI
Test [6] in a line: microbe, parasite or virus in culture. In kind it is functional. Conditions: Mycobacterium tuberculosis.
Test [7] in a line: C. albicans growth with fluconazole, confirmation, fluorescence, retest (AID 2467). In kind it is functional, cell-based.
Test [8] is described as follows: LGR2 antagonists, dose response, cell-based, HEK293, CRE-luciferase reporter, cherry pick, set 2 (AID 743343).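 Further: transfected cells were stimulated with diluted bursicon conditioned medium after compound addition.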 In kind it is functional. A general note: Reporter assays use an easily measured gene product as a stand-in for the process of interest.
Test [9] deals with T2, Microphthalmia-associated transcription factor (Homo sapiens, UniProt O75030).
T2 sequence (O75030 whole entry): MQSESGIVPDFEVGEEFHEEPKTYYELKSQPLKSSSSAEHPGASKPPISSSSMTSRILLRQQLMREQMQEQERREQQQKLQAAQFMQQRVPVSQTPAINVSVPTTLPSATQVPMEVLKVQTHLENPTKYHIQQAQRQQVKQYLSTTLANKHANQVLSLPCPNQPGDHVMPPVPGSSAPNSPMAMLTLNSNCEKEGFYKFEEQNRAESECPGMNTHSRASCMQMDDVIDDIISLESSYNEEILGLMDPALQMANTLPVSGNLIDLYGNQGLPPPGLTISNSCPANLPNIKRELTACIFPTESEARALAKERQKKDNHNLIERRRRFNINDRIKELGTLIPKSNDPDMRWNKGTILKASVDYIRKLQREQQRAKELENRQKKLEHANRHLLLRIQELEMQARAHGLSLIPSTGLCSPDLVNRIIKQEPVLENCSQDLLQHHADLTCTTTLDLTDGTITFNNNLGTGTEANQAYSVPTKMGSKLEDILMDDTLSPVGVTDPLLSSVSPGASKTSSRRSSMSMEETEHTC
The test is described as follows: TRPM1 promoter luciferase signal decrease, dose response, MITF inhibitor project, cell-based, SK-MEL-5, cherry-picked, set 3 (AID 493073).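 Further: SK-MEL-5 melanoma cells with luciferase driven by the MITF target TRPM1 promoter.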 Type of test: functional.

A short description of a further test: cells. Type of test: functional, cell-based.
Test [10] is described as follows: inhibitors of SNCA 5'UTR-driven reporter translation, confirmation, H4 neuroglioma cells, luminescence (AID 1988). In kind it is functional, cell-based.
A short description of test [11]: PAX5 activity inhibitors, dose response, selectivity assay for PAX8 inhibitor project, cell-based, plate reader, dry powder samples (AID 743047).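 Further: HEK293 cells carrying a Pax5 driven CD19 promoter luciferase reporter; potency of inhibitors that lower reporter luminescence.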 In kind it is functional.
For a further test, the target named is Paired box protein Pax-8 (Homo sapiens, UniProt Q06710). Kind of test: inhibitors of PAX8-driven TPO luciferase reporter, dose response, RMG-I cells, cherry-pick (AID 687027).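 Further: luciferase reporter driven by Pax8 target thyroperoxidase promoter measured by SteadyGlo luminescence.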 Type of test: functional, cell-based.
Sequence of Paired box protein Pax-8 (Q06710 whole entry): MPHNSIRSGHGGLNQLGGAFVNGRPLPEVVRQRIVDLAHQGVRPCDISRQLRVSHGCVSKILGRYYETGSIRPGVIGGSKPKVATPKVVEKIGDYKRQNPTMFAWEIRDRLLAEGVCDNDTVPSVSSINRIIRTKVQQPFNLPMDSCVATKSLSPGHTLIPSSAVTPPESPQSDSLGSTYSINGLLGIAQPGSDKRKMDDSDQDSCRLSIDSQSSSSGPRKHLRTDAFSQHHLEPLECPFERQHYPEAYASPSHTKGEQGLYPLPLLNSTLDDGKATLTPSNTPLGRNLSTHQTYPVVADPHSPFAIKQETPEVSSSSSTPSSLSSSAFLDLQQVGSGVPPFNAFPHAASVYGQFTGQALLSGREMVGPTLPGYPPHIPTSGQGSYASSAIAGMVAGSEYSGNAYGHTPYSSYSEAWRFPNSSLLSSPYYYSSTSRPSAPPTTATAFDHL
Test [12] is described as follows: PAX2 cell-based inhibition, dose response, selectivity assay for PAX8 inhibitor project, plate reader, dry powder samples (AID 743048).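 Further: HEK293 cells carrying a WT1 promoter luciferase reporter driven by expressed Pax2; potency is for inhibition of Pax2 driven reporter signal.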 In kind it is functional.
Test [13] is described as follows: ZM109 Env clade C HIV-1 fusion inhibitors, dose response, HeLa effector, CEM target cells, luciferase, cherry-pick (AID 652058). In kind it is functional, cell-based.
Test [14] is described as follows: luciferase reporter signal reduction – luminescence, H4-C neuroglioblastoma cells, dose response (AID 2458).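 Further: H4 neuroglioblastoma cells stably carrying a luciferase reporter gene fusion.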 In kind it is functional, cell-based.
A short description of test [15]: MC4R antagonists, dose response, counter-screen for LGR2 antagonist project, cell-based, plate reader, cherry pick (AID 743444).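 Further: transfected HEK 293 cells stimulated with alpha-MSH peptide; potency of inhibitors of the alpha-MSH evoked signal.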 Type of test: functional.
The nature of test [16]: off-target signal loss in HeLa-CEM21 co-culture – HeLa F-luc CTL cells, cherry-picked, counter-screen for HIV-1 Env fusion inhibitor project, dose response (AID 652040).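 Further: potency for signal decrease marking cytotoxic or nonspecific inhibition.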 In kind it is functional, cell-based. On the technique in general: Counterscreens check selectivity or assay interference.
Test [17] can be described thus: cytotoxicity dependent on PAX8, dose response, cell-based, plate reader, dry powder (AID 743049). Type of test: functional.
Test [18] can be described thus: inhibitors of clade B AD8 Env fusion, dose response, cell-based, cherry-pick (AID 652062).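 Further: luciferase signal from cell-cell fusion driven by HIV-1 clade B AD8 Env; potency is for inhibitors of fusion seen as a drop in luminescence.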 In kind it is functional.
The nature of test [19]: Luminescence-based counterscreen assay for KLF5 inhibitors: dose response cell-based high throughput screening assay to identify cytotoxic compounds using the IEC-6 intestinal epithelial cell line. [Related pubchem assays: 1700 (Primary screen.), 1834 (Confirmation screen.), 1858 (Summary AID.), 1905 (Counterscreen.)]. In kind it is functional.
Test [20] in a line: inhibitors of HIV Env-driven cell fusion, dose response, cherry-pick (AID 652057). Type of test: functional, cell-based.
A short description of test [21]: inhibitors of SNCA 5'UTR-driven translation, confirmation, luminescence, H4 neuroglioblastoma cells, dose confirmation (AID 2454).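 Further: H4 neuroglioblastoma cells carrying an alpha-synuclein 5'UTR luciferase reporter; potency for inhibition of the luciferase signal.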 In kind it is functional, cell-based.
Test [22] can be described thus: cytotoxicity in COV362 ovarian cancer cells, dose response, cytotoxicity control for PAX8 inhibitor project, cell-based, plate reader, dry powder, SA12 (AID 743144). Type of test: functional.
Test [23] is described as follows: inhibitors of Bluetongue virus cytopathic effect, confirmation, arbovirus, BSR cells (AID 1250).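 Further: protection from viral cytopathic effect measured as cell viability by ATP luminescence.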 In kind it is functional.
Test [24] can be described thus: HepG2 cell cytotoxicity, dose response, cytotoxicity control, plate reader, cherry-pick, antagonist series (AID 743416). Type of test: functional, cell-based.
A short description of test [25]: HEK293 cell cytotoxicity, dose response, cytotoxicity control, plate reader, cherry-picked samples (AID 743446). In kind it is functional, cell-based.
The target of a further test is Melanocortin receptor 4 (Homo sapiens, UniProt P32245). Type of test: functional, cell-based.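 Further: Cell-based assay with luminescence read-out, confirmatory dose-response testing for agonist activity of biased ligands at MC4R; human U2OS cells with tagged receptor and beta-arrestin; potency of agonists that increase receptor coupling to beta-arrestin.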
Sequence of Melanocortin receptor 4 (P32245 whole entry): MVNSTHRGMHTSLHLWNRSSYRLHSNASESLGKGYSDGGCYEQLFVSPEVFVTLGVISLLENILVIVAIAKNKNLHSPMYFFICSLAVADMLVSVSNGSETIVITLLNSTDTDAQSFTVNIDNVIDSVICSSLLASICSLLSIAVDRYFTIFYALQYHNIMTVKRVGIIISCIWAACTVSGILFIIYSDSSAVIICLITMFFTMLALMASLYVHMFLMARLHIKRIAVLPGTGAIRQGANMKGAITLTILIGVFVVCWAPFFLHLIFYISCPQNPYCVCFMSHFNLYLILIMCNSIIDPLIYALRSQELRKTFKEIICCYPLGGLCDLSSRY
Test [26] deals with T3, Estrogen receptor (Homo sapiens, UniProt P03372).
T3 sequence (P03372 whole entry): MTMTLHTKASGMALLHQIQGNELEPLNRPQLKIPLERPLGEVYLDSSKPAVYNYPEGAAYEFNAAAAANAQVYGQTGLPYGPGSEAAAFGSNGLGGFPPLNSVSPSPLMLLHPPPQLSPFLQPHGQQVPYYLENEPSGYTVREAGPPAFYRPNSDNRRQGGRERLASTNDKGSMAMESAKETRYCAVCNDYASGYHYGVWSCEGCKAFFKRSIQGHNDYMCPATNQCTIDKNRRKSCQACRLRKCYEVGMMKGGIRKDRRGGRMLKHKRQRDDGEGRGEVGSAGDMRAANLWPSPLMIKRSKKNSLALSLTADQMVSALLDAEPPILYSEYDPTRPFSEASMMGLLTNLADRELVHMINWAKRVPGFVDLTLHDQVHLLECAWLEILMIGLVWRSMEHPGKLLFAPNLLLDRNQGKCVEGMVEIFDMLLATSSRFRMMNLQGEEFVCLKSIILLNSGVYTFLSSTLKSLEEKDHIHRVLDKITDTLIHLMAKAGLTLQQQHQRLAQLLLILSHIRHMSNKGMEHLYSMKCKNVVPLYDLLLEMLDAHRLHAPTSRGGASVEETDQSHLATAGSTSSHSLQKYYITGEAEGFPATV
Kind of test: potentiators of ERα–SRC-1 coactivator binding, dose response, biochemical, TR-FRET, ERα LBD (AID 737).

In test [27] the target is T3, Estrogen receptor. Kind of test: ERα–SRC-3 coactivator interaction inhibitors, confirmation, orthogonal assay, biochemical, ELISA, streptavidin-HRP readout (AID 1079).
In test [28] the target is DNA dC->dU-editing enzyme APOBEC-3A (Homo sapiens, UniProt P31941). Kind of test: Dose Response confirmation of small molecule APOBEC3A DNA Deaminase Inhibitors via a fluorescence-based single-stranded DNA deaminase assay. [Related pubchem assays (depositor defined):AID493011, AID493024]. In kind it is functional.
Sequence of DNA dC->dU-editing enzyme APOBEC-3A (P31941 whole entry): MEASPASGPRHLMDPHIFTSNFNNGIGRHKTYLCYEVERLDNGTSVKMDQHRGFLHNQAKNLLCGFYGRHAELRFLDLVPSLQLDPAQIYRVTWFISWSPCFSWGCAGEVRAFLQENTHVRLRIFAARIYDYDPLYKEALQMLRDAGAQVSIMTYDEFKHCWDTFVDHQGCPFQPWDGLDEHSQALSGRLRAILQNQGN
Test [29] concerns the target DNA dC->dU-editing enzyme APOBEC-3G (Homo sapiens, UniProt Q9HC16). In kind it is functional.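 Further: Dose-response counterscreen measuring inhibition of APOBEC3G DNA deaminase activity, run while confirming APOBEC3A inhibitors.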
Test [30] deals with Eukaryotic translation initiation factor 4H (Homo sapiens, UniProt Q15056). Kind of test: human eIF4H binding inhibitors, primary screen, translation initiation inhibitor project, biochemical, uHTS, fluorescence polarization (AID 2012).
Test [31] deals with Polyadenylate-binding protein 1 (Homo sapiens, UniProt P11940). The test is described as follows: PABP poly(A) RNA binding inhibitors, primary screen, biochemical, fluorescence polarization, uHTS (AID 2014).
Sequence of Polyadenylate-binding protein 1 (P11940 whole entry): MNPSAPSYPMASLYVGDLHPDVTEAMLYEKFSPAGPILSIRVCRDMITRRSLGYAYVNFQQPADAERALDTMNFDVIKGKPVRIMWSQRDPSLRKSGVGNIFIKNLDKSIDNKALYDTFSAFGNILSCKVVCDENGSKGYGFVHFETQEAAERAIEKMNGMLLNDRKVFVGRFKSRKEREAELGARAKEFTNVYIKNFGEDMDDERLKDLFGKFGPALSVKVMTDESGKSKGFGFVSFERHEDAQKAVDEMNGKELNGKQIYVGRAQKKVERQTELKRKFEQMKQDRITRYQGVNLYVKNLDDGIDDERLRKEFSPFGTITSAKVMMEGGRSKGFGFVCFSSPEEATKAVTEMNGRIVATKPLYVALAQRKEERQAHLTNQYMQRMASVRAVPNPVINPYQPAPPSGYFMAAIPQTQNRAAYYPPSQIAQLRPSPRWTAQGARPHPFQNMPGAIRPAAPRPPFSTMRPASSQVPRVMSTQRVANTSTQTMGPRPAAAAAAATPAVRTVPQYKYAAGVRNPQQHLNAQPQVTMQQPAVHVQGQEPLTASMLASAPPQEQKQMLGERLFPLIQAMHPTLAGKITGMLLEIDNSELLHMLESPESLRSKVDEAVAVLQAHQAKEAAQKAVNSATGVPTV
Test [32] has as its target T4, Eukaryotic translation initiation factor 2-alpha kinase 3 (Homo sapiens, UniProt Q9NZJ5). Kind of test: Counterscreen assay for PERK inhibitors: Dose response cell-based high throughput screening assay to measure inhibition of PERK at 6 hours. [Related pubchem assays: 1522, 1416 ]. In kind it is functional.
Test [33] addresses T4, Eukaryotic translation initiation factor 2-alpha kinase 3. Kind of test: Dose response cell-based high-throughput screening assay to measure PERK inhibition. [Related pubchem assays: 1416 ]. In kind it is functional.

T4 sequence (Q9NZJ5 whole entry): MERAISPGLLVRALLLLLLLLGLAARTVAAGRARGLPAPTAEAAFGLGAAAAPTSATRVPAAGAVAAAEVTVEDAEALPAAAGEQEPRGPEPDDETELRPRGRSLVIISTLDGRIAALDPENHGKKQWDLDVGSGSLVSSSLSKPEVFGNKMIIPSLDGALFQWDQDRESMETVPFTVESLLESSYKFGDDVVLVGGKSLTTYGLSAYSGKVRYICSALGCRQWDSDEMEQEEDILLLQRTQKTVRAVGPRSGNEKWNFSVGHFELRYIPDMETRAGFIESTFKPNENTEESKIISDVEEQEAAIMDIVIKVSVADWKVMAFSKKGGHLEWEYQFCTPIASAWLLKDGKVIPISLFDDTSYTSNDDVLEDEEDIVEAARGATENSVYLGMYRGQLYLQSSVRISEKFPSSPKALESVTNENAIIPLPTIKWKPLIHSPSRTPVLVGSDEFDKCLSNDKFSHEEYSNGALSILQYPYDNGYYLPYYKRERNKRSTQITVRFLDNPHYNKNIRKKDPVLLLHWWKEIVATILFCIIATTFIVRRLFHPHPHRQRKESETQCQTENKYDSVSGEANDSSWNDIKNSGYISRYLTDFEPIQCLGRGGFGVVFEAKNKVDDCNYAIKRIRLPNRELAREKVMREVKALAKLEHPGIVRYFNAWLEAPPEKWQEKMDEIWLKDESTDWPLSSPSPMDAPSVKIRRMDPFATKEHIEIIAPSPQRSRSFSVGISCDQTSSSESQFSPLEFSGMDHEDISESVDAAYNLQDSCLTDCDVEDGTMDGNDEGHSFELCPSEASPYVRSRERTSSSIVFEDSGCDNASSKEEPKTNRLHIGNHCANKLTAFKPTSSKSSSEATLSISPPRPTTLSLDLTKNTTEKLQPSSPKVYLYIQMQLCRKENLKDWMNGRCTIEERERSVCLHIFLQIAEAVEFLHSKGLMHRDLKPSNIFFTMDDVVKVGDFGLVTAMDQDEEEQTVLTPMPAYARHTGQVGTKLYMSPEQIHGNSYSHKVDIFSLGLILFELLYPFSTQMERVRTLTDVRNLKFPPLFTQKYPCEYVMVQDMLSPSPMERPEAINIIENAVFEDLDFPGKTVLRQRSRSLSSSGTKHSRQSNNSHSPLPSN
Sequence of DNA dC->dU-editing enzyme APOBEC-3G (Q9HC16 whole entry): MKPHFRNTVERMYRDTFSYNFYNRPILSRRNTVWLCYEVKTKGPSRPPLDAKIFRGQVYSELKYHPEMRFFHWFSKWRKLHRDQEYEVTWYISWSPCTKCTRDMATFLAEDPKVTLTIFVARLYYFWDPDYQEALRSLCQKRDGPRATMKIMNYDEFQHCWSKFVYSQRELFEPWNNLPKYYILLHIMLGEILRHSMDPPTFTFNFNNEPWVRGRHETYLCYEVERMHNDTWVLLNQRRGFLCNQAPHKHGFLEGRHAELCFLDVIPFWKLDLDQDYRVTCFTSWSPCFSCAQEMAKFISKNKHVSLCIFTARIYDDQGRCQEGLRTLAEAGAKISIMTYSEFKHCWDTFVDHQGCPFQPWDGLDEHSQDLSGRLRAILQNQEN
Sequence of Sphingosine 1-phosphate receptor 1 (P21453 whole entry): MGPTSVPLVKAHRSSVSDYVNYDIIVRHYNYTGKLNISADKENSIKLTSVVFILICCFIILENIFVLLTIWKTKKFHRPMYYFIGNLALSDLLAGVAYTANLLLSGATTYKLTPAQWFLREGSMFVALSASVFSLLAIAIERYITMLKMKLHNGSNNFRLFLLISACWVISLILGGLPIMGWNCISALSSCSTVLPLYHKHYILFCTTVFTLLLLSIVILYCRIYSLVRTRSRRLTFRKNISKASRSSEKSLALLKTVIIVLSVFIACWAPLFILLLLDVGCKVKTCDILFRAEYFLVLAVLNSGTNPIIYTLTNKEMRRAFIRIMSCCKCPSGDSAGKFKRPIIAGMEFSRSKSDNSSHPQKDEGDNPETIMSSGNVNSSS

Take `Cc1nn(C)c(C)c1NC(=O)c1ccc(S(=O)(=O)N(C)C)cc1`: the CC50 with HeLa is given as > 99 µM (not active).

`Cc1cc([N+](=O)[O-])c2ccccc2[n+]1[O-]`: the figures for the AC50 (in [1]; in the test with INS1) were < 0.195 µM (active) and 2.24 µM (active), respectively. Moreover, the EC50 in test [2] was 4.65 µM (inconclusive); in [3] it was 6.35 µM (active); in [7], 0.097 µM (active). In addition, the IC50 was 3.28 µM (active) in [4] and 0.22 µM (active) in [5]. In test [6], the CC50 was < 0.16 µM (active).

With `Cc1ccccc1OCC(=O)Nc1cccc(C(=O)O)c1`, the AC50 is 0.669 µM (active) in test [8]; 1.05 µM (active) in [9]; 3.76 µM (active) in test [11]; 2.3 µM (active) on Paired box protein Pax-8; 3.61 µM (active) in test [12]; 7.82 µM (active) in test [13]. For the same compound, the AC50 in test [15] is 1.05 µM (active); in test [16] it was 0.951 µM (active); in test [17], > 100 µM (inactive); in [18], 1.27 µM (active); in test [20], 0.342 µM (active); in test [22], > 100 µM (inactive). Further, the EC50 in the test “cells” was 0.725 µM (active); in test [10], < 0.1 µM (active); in test [14], 0.541 µM (active); in test [21] it was 0.393 µM (active). Besides, in test [19], the IC50 is listed as > 39.8 µM (not active).

As to `COc1ccc(-c2csc(NC(=O)c3ccc(OCC(=O)N4CCOCC4)c(OC)c3)n2)cc1`, the AC50 in test [8] is 18.4 µM (active); in test [24], > 52 µM (inactive); in test [25], 43.1 µM (active); in [15], 22.4 µM (active). Further, the IC50 in [23] is 27.5 µM (active).

With `COc1cc(C(=O)Nc2nnc(-c3sccc3C)s2)cc(OC)c1OC`, the results for the EC50 at Melanocortin receptor 4 and at Estrogen receptor [26] were > 89.2 µM (inactive) and 13.2 µM (active), respectively.

`O=C(CCCn1c(=S)[nH]c2ccccc2c1=O)N1CCN(Cc2cccc3ccccc23)CC1`: the IC50 against Estrogen receptor [27] was 0.17 µM (not active).

For `CC(=O)OC(C[N+]1(C)CCCCCC1)c1ccccc1` (stereo not given), the IC50 in test [28] is 2.79 µM (active); in test [29], 2.4 µM (active); in test [30] it was > 100 µM (inactive); in test [31], 9.62 µM (active).

With `Oc1cnnc(N/N=C/c2cccs2)n1`, the EC50 in [32] and in test [33] was > 55.7 µM (not active) throughout.
